Source: US20180360801A1, “NEUROPROTECTIVE COMPOSITIONS AND THEIR USE” (priority 2017, published 2018)

Experiment: Blood glucose by glucometer after 4 weeks of treatment
Assay type: in vivo
Conditions: rats, streptozotocin 55 mg/kg ip, n=12, p<0.05
Method: In this study, we used streptozotocin (55 mg/kg) to induce hyperglycemia. We measured the levels of glucose using standardized glucometer after 4 weeks of treatment. Based on the literature, the current animal model represents severe hyperglycemia.

CN(N=O)C(=O)N[C@H]1C(O)O[C@H](CO)[C@@H](O)[C@@H]1O (mixture of isomers) [Streptozotocin, streptozotocin]
increase of levels of glucose as compared to the controls: 445.5%
